Data reported in patent US20110306597A1, “Nicotinamide Derivatives” (priority 2008, published 2011).

Target: human recombinant H-PGDS (Homo sapiens, UniProt O60760)
Experiment: Fluorescence Intensity h-PGDS TBA Enzyme Assay
Type: biochemical
Conditions: 1:175,000 human recombinant H-PGDS, highest inhibitor concentration typically 1 μM
In short: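 Recombinant human H-PGDS preincubated 10 min at room temperature with inhibitor in 100 mM Tris pH 8.0, 100 μM MgCl2, 2.5 mM glutathione, 0.5% DMSO; 5.0 μM PGH2 added, stopped after 42 s with FeCl2/citric acid. Remaining PGH2 measured as MDA–TBA fluorescence (ex 530/em 565 nm); IC50 by 4-parameter fit, 11 concentrations.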

human recombinant H-PGDS, sequence (O60760 whole entry): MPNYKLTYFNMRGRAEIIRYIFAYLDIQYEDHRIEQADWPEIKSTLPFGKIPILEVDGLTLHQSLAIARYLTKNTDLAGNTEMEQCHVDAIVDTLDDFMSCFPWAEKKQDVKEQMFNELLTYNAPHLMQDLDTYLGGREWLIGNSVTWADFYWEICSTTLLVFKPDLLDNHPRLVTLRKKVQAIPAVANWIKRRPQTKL

| Compound | IC50 |
| --- | --- |
| CCCCNC(=O)c1ccc(-c2cccc(F)c2)nc1 [Example 415, N-Butyl-6-(3-fluorophenyl)nicotinamide] | 24.5 nM |
| COC(=O)c1ccc(CNC(=O)c2ccc(-c3cccc(F)c3)nc2)cc1 [Example 416, Methyl 4-[({[6-(3-fluorophenyl)pyridin-3-yl]carbonyl}amino)methyl] benzoate] | 44.8 nM |
| CC(C)(CNC(=O)c1ccc(-c2cccc(F)c2)nc1)N1CCOCC1 [Example 417, 6-(3-Fluorophenyl)-N-(2-methyl-2-morpholin-4-ylpropyl)nicotinamide] | 40.1 nM |
| O=C(CNC(=O)c1ccc(-c2cccc(F)c2)nc1)OCc1ccccc1 [Example 418, Benzyl N-{[6-(3-fluorophenyl)pyridin-3-yl]carbonyl}glycinate] | 96.1 nM |
| O=C(Nc1cccnc1)c1ccc(-c2cccc(F)c2)nc1 [Example 419, 6-(3-Fluorophenyl)-N-pyridin-3-ylnicotinamide] | 3.94 nM |
| CS(=O)(=O)c1ccc(CNC(=O)c2ccc(-c3cccc(F)c3)nc2)cc1 [Example 420, 6-(3-Fluorophenyl)-N-[4-(methylsulfonyl)benzyl] nicotinamide] | 34.1 nM |
| O=C(Nc1ccccc1)c1ccc(-c2cccc(F)c2)nc1 [Example 421, 6-(3-Fluorophenyl)-N-phenylnicotinamide] | 7.37 nM |
| O=C(NCCN1CCCC1)c1ccc(-c2cccc(F)c2)nc1 [Example 422, 6-(3-Fluorophenyl)-N-(2-pyrrolidin-1-ylethyl)nicotinamide] | 159 nM |
| CC(NC(=O)c1ccc(-c2cccc(F)c2)nc1)c1ccccc1 (stereo not shown) [Example 423, 6-(3-Fluorophenyl)-N-(1-phenylethyl)nicotinamide] | 8.76 nM |
| CNS(=O)(=O)c1ccc(CNC(=O)c2ccc(-c3cccc(F)c3)nc2)cc1 [Example 424, 6-(3-Fluorophenyl)-N-{4-[(methylamino)sulfonyl]benzyl}nicotinamide] | 67.8 nM |
| CCC(C)NC(=O)c1ccc(-c2cccc(F)c2)nc1 (stereo not shown) [Example 426, N-sec-Butyl-6-(3-fluorophenyl)nicotinamide] | 111 nM |
| CCCCCNC(=O)c1ccc(-c2cccc(F)c2)nc1 [Example 427, 6-(3-Fluorophenyl)-N-pentylnicotinamide] | 43.8 nM |
| O=C(NCc1ccco1)c1ccc(-c2cccc(F)c2)nc1 [Example 428, 6-(3-Fluorophenyl)-N-(2-furylmethyl)nicotinamide] | 40.9 nM |
| O=C(NCCNc1ccccc1)c1ccc(-c2cccc(F)c2)nc1 [Example 429, N-(2-Anilinoethyl)-6-(3-fluorophenyl)nicotinamide] | 21.8 nM |
| O=C(NCCc1cccs1)c1ccc(-c2cccc(F)c2)nc1 [Example 430, 6-(3-Fluorophenyl)-N-[2-(2-thienyl)ethyl]nicotinamide] | 11.7 nM |
| O=C(NC1CCN(Cc2ccc(Cl)cc2)C1=O)c1ccc(-c2cccc(F)c2)nc1 (stereo not shown) [Example 431, N-[1-(4-Chlorobenzyl)-2-oxopyrrolidin-3-yl]-6-(3-fluorophenyl)nicotinamide] | 59 nM |
| O=C(NCc1ccccc1)c1ccc(-c2cccc(F)c2)nc1 [Example 432, N-Benzyl-6-(3-fluorophenyl)nicotinamide] | 14.9 nM |
| C[C@@H](CNC(=O)c1ccc(-c2cccc(F)c2)nc1)NC(=O)OCc1ccccc1 [Example 433, Benzyl [(1S)-2-({[6-(3-fluorophenyl)pyridin-3-yl]carbonyl}amino)-1-methylethyl]carbamate] | 33.7 nM |
| COc1ccc(OCCNC(=O)c2ccc(-c3cccc(F)c3)nc2)cc1 [Example 434, 6-(3-Fluorophenyl)-N-[2-(4-methoxyphenoxy)ethyl] nicotinamide] | 101 nM |
| COc1cccc([C@H](C)NC(=O)c2ccc(-c3cccc(F)c3)nc2)c1 [Example 436, 6-(3-Fluorophenyl)-N-[(1S)-1-(3-methoxyphenyl)ethyl] nicotinamide] | 6.12 nM |
| C[C@H](CNC(=O)c1ccc(-c2cccc(F)c2)nc1)NC(=O)OCc1ccccc1 [Example 437, Benzyl [(1R)-2-({[6-(3-fluorophenyl)pyridin-3-yl]carbonyl}amino)-1-methylethyl]carbamate] | 54.3 nM |
| COc1ccccc1-c1nnc(CNC(=O)c2ccc(-c3cccc(F)c3)nc2)o1 [Example 439, 6-(3-Fluorophenyl)-N-{[5-(2-methoxyphenyl)-1,3,4-oxadiazol-2-yl]methyl}nicotinamide] | 20 nM |
| O=C(NCCSCCO)c1ccc(-c2cccc(F)c2)nc1 [Example 440, 6-(3-Fluorophenyl)-N-{2-[(2-hydroxyethyl)thio]ethyl} nicotinamide] | 14.4 nM |
| COc1ccc2nc(CNC(=O)c3ccc(-c4cccc(F)c4)nc3)[nH]c2c1 [Example 441, 6-(3-Fluorophenyl)-N-[(6-methoxy-1H-benzimidazol-2-yl)methyl]nicotinamide] | 45.2 nM |
| COCCCNC(=O)c1ccc(-c2cccc(F)c2)nc1 [Example 442, 6-(3-Fluorophenyl)-N-(3-methoxypropyl)nicotinamide] | 41.3 nM |

| Compound | IC50 |
| --- | --- |
| CC(NC(=O)c1ccc(-c2cccc(F)c2)nc1)c1ccncn1 (stereo not shown) [Example 443, 6-(3-Fluorophenyl)-N-(1-pyrimidin-4-ylethyl)nicotinamide] | 359 nM |
| NC(CC(=O)NC(=O)c1ccc(-c2cccc(F)c2)nc1)C1CC1 (stereo not shown) [Example 444, N-(3-Amino-3-cyclopropylpropanoyl)-6-(3-fluorophenyl) nicotinamide] | 95.2 nM |
| O=C(NCC(c1ccccc1Cl)N1CCOCC1)c1ccc(-c2cccc(F)c2)nc1 (stereo not shown) [Example 445, N-[2-(2-Chlorophenyl)-2-morpholin-4-ylethyl]-6-(3-fluorophenyl)nicotinamide] | 589 nM |
| O=C(NCCc1ccc(O)cc1)c1ccc(-c2cccc(F)c2)nc1 [Example 446, 6-(3-Fluorophenyl)-N-[2-(4-hydroxyphenyl)ethyl] nicotinamide] | 5.33 nM |
| CC(C)(CO)CNC(=O)c1ccc(-c2cccc(F)c2)nc1 [Example 447, 6-(3-Fluorophenyl)-N-(3-hydroxy-2,2-dimethylpropyl) nicotinamide] | 47.3 nM |
| Cc1cccc(-c2ccc(C(=O)NCc3nnc(-c4cccnc4)[nH]3)cn2)c1 [Example 448, 6-(3-Methylphenyl)-N-[(5-pyridin-3-yl-4H-1,2,4-triazol-3-yl)methyl]nicotinamide] | 9.13 nM |
| Cc1cccc(-c2ccc(C(=O)NCc3ccc(S(N)(=O)=O)cc3)cn2)c1 [Example 449, N-[4-(Aminosulfonyl)benzyl]-6-(3-methylphenyl)nicotinamide] | 25.9 nM |
| CCC(C)NC(=O)c1ccc(-c2cccc(C)c2)nc1 (stereo not shown) [Example 450, N-sec-Butyl-6-(3-methylphenyl)nicotinamide] | 42.5 nM |
| Cc1cccc(-c2ccc(C(=O)NCc3ccc(Cl)cc3)cn2)c1 [Example 451, N-(4-Chlorobenzyl)-6-(3-methylphenyl)nicotinamide] | 234 nM |
| COc1ccc(C(N)CC(=O)NC(=O)c2ccc(-c3cccc(C)c3)nc2)cc1OC (stereo not shown) [Example 452, N-[3-Amino-3-(3,4-dimethoxyphenyl)propanoyl]-6-(3-methylphenyl) nicotinamide] | 23.6 nM |
| CSc1ccc(CNC(=O)c2ccc(-c3cccc(C)c3)nc2)cc1 [Example 453, 6-(3-Methylphenyl)-N-[4-(methylthio)benzyl]nicotinamide] | 102 nM |
| Cc1cccc(-c2ccc(C(=O)NCc3ccc(C(F)(F)F)cc3)cn2)c1 [Example 454, 6-(3-Methylphenyl)-N-[4-(trifluoromethyl)benzyl] nicotinamide] | 149 nM |
| COC(=O)c1ccc(CNC(=O)c2ccc(-c3cccc(C)c3)nc2)cc1 [Example 455, Methyl 4-[({[6-(3-methylphenyl)pyridin-3-yl]carbonyl}amino)methyl] benzoate] | 95.1 nM |
| Cc1cccc(-c2ccc(C(=O)NCc3ccc(Cl)c(Cl)c3)cn2)c1 [Example 456, N-(3,4-Dichlorobenzyl)-6-(3-methylphenyl)nicotinamide] | 178 nM |
| CCOC(=O)C(CNC(=O)c1ccc(-c2ccc(F)cc2)nc1)c1c(F)cccc1F (stereo not shown) [Example 457, Ethyl 2-(2,6-difluorophenyl)-3-({[6-(4-fluorophenyl)pyridin-3-yl]carbonyl}amino) propanoate] | 428 nM |
| O=C(NCCC1CNCCO1)c1ccc(-c2ccc(F)cc2)nc1 (stereo not shown) [Example 458, 6-(4-Fluorophenyl)-N-(2-morpholin-2-ylethyl)nicotinamide] | 697 nM |
| O=C(Nc1ccncc1)c1ccc(-c2ccc(F)cc2)nc1 [Example 459, 6-(4-Fluorophenyl)-N-pyridin-4-ylnicotinamide] | 222 nM |
| NS(=O)(=O)c1ccc(CNC(=O)c2ccc(-c3ccc(F)cc3)nc2)cc1 [Example 460, N-[4-(Aminosulfonyl)benzyl]-6-(4-fluorophenyl) nicotinamide] | ≥ 1000 nM |
| COc1ccc(CNC(=O)c2ccc(-c3ccc(F)cc3)nc2)cc1OC [Example 461, N-(3,4-Dimethoxybenzyl)-6-(4-fluorophenyl) nicotinamide] | 91.5 nM |
| O=C(NCc1ccc(Cl)cc1)c1ccc(-c2ccc(F)cc2)nc1 [Example 462, N-(4-Chlorobenzyl)-6-(4-fluorophenyl)nicotinamide] | ≥ 1000 nM |
| CC(C)CNC(=O)c1ccc(-c2ccc(F)cc2)nc1 [Example 463, 6-(4-Fluorophenyl)-N-isobutylnicotinamide] | 653 nM |
| O=C(CNC(=O)c1ccc(-c2ccc(F)cc2)nc1)OCc1ccccc1 [Example 464, Benzyl N-{[6-(4-fluorophenyl)pyridin-3-yl]carbonyl}glycinate] | ≥ 1000 nM |
| O=C(NCc1cccc(F)c1)c1ccc(-c2ccc(F)cc2)nc1 [Example 465, N-(3-Fluorobenzyl)-6-(4-fluorophenyl)nicotinamide] | 345 nM |
| COc1ccc(C(N)CC(=O)NC(=O)c2ccc(-c3ccc(F)cc3)nc2)cc1OC (stereo not shown) [Example 466, N-[3-Amino-3-(3,4-dimethoxyphenyl)propanoyl]-6-(4-fluorophenyl)nicotinamide] | ≥ 1000 nM |
